Patent publication US20050221285A1, “Method for identifying or screening anti-viral agents” (priority 2001, published 2005)
Converted amounts (≈) assume the structure as drawn.

Test system: RSV Long wild type
Test: Assay for compounds active against RSV (HEp2 cells, MTT cell viability)
Settings: human respiratory syncytial virus, HEp-2
Procedure: Graded concentrations of test compounds were prepared by serial dilution in 96 well tissue culture plates containing 100 μL per well of assay media (Eagles Minimal Essential Medium (MEM) supplemented with 2% foetal bovine serum and Glutamine alanyl-L-glutamine). […] 1.5×10^4 of the diluted cells were added to several individual wells of each 96 well plate which were designated uninfected control wells. The remaining cell suspension was exposed to infectious RSV by addition of sufficient virus to the suspension to yield a concentration of 0.4 plaque forming units per cell. The cell-virus suspension was mixed well by inversion and 100 μL immediately dispensed into the remaining wells of the 96 well plates. Assay plates were incubated in a 37° C. incubator for 5 days. Viral replication was quantified by determination of cell viability substantially as described by Watanabe and colleagues (Watanabe, W. et al., J. Virol. Methods, 48: 257-265, 1994). Briefly, 100 μL of 3 mg/mL MTT (3(4,5-dimethylthiazol-2-yl)-2,5-diphenyltetrazolium bromide) was added to each well and plates incubated at 37° C. in a 5% CO2 incubator for 2 hours. […] The extent of metabolism was measured via determination of absorbance using a computer-controlled microplate reader at 540 nm with a reference wavelength of 690 nm. […]

NC(=O)c1ncn(C2O[C@H](CO)[C@@H](O)[C@H]2O)n1 (stereo partly drawn) [Ribavirin, 1-D-ribofuranosyl-1H-1,2,4-triazole-3-carboxamide]
EC50: 5.54 mg/L (≈ 22.7 µM)
